Where a name gives a salt, the structure may show the parent alone. Activity calls are given as the source filed them. Bounds are passed on as bounds.

The test system of assay [1] is Streptococcus. Nature of the assay: Group A Streptococcus viability loss, dose response, counter-screen for streptokinase expression inhibitor project, luminescence, BacTiterGlo (AID 1915).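 Also: potency for reduction of bacterial viability or growth.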 The assay is classed as functional, organism-based.
Assay [2] addresses T1, DNA repair protein RAD52 homolog (Homo sapiens, UniProt P43351).
T1 sequence (P43351 whole entry): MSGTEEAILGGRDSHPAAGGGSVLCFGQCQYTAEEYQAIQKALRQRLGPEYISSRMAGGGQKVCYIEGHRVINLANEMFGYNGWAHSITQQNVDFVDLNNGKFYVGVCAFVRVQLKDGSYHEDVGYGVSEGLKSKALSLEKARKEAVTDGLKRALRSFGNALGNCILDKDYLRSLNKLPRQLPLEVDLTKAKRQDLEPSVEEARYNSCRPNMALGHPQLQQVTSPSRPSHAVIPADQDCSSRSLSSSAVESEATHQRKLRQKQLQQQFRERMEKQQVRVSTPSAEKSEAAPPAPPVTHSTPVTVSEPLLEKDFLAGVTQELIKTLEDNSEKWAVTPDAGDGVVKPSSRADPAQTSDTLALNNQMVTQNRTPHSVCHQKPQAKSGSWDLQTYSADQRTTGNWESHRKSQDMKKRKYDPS
Format: functional, biochemical.

Assay [3] addresses T2, Streptokinase A (Streptococcus pyogenes serotype M1, UniProt P10520).
T2 sequence (P10520 whole entry): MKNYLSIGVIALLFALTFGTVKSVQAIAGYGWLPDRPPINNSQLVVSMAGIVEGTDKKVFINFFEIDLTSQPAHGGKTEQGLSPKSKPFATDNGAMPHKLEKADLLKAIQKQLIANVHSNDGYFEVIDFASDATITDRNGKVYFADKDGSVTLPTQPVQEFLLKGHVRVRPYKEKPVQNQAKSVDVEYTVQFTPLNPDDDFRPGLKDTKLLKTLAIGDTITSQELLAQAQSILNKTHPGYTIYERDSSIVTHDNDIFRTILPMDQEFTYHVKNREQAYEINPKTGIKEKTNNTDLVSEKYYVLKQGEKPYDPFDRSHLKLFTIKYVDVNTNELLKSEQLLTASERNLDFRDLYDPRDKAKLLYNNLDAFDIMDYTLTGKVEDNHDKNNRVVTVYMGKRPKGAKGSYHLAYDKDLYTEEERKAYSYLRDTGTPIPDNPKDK
Nature of the assay: S. pyogenes streptokinase expression inhibitors, potency, dose response, plasminogen activation absorbance, OD405 (AID 1914).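 Also: secreted streptokinase activity via plasminogen activation per viability signal from cell pellet.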 The assay is classed as functional, Streptococcus pyogenes M1 GAS.

Assay [4] relates to Streptococcus sp. 'group A'. As to the kind of experiment: growth inhibition of control SK(-) GAS strain, dose response, counter-screen for streptokinase expression inhibitor project, luminescence, kanamycin, BacTiterGlo, confirmation (AID 1900). Format: functional, organism-based. In general terms: A counterscreen serves to expose hits that act by an unwanted route or on another target.

In assay [5] the target is T3, Protein skinhead-1 (Caenorhabditis elegans, UniProt P34707).
T3 sequence (P34707 whole entry): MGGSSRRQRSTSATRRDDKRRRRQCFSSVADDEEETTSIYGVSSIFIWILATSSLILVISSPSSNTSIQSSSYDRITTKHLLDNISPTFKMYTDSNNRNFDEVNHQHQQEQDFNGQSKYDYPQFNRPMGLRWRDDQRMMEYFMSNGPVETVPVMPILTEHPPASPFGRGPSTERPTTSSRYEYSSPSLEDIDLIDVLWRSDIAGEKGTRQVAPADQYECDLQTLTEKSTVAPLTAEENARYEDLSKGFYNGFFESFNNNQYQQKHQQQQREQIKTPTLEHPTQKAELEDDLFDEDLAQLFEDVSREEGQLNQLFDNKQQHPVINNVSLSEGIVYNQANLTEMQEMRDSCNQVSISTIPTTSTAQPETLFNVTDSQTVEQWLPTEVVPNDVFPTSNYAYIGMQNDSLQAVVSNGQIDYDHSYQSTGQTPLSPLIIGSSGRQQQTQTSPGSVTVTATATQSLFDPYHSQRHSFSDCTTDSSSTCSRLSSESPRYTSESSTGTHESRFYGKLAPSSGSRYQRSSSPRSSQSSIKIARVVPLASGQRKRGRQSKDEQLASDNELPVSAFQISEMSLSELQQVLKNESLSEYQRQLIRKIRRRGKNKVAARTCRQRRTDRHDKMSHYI
The assay is classed as functional.

The test system of assay [6] is BJ. As to the kind of experiment: cells. Format: functional, cell-based. The settings on record: Homo sapiens.
The nature of assay [7]: C. albicans growth with fluconazole, confirmation, fluorescence, retest (AID 2467). The assay is classed as functional, cell-based.
Assay [8] relates to BJ. As to the kind of experiment: cytotoxicity toward BJ-TERT-LT-ST fibroblasts, dose response, cell-based, RAS-independent, luminescence (AID 1935).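 Also: BJ fibroblasts immortalized with TERT plus LT and ST oncogenes.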 Format: functional. The settings on record: Homo sapiens.
A short description of assay [9]: cytotoxicity toward DRD oncogenic fibroblasts, dose response, cell-based, non-viral oncogenic, luminescence (AID 1934). The assay is classed as functional. To be noted: Homo sapiens.
Assay [10] concerns the target Paired box protein Pax-8 (Homo sapiens, UniProt Q06710). As to the kind of experiment: inhibitors of PAX8-driven TPO luciferase reporter, dose response, RMG-I cells, cherry-pick (AID 687027).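 Also: luciferase reporter driven by Pax8 target thyroperoxidase promoter measured by SteadyGlo luminescence.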 Format: functional, cell-based.
Assay [11] in a line: cells. The assay is classed as functional.
The nature of assay [12]: NIH-3T3 fibroblast cytotoxicity, dose response, cytotoxicity control, cell-based, fluorescence, Alamar Blue, secondary assay (AID 2327).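 Also: NIH-3T3 mouse fibroblasts cultured with fluconazole at 8 µg/mL.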 Format: functional.
Assay [13] has as its target T4, Rac GTPase-activating protein 1 (Homo sapiens, UniProt Q9H0H5).
T4 sequence (Q9H0H5 whole entry): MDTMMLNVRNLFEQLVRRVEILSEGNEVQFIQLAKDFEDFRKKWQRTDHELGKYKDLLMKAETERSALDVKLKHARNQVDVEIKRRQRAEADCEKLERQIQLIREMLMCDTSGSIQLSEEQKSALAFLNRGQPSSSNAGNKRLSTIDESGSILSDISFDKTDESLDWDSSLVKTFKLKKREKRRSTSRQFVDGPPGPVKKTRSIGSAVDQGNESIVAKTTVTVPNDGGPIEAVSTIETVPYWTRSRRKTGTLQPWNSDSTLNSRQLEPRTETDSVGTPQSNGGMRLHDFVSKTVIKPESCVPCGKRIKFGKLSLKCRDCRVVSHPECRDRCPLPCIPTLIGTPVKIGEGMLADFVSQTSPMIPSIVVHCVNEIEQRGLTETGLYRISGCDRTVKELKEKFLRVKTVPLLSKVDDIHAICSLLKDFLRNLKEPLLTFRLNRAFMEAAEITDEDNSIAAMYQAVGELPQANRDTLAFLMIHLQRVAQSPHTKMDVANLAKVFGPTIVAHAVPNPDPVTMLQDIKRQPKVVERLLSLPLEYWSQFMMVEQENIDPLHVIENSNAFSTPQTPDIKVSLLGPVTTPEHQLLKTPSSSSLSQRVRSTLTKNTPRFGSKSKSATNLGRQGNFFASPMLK
Nature of the assay: MgcRacGAP GTPase-activating activity inhibitors, confirmation, biochemical, ADP Hunter fluorescence, primary and confirmatory (AID 624330). Format: functional.

The target in assay [14] is T5, Corticotropin-releasing factor receptor 2/Corticotropin-releasing factor-binding protein (Homo sapiens, UniProt P24387+Q13324).
T5 sequence (Q13324 whole entry): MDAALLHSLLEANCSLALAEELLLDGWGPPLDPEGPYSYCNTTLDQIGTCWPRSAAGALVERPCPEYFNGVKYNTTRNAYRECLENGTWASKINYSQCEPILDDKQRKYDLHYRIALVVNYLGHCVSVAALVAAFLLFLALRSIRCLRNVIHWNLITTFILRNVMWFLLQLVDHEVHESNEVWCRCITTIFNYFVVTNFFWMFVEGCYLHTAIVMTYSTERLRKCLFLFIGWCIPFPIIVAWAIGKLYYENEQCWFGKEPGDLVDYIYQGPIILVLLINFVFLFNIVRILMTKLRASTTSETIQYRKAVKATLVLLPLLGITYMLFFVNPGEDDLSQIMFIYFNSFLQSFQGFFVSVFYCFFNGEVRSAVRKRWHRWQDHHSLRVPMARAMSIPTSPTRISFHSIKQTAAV
T5 sequence (P24387 whole entry): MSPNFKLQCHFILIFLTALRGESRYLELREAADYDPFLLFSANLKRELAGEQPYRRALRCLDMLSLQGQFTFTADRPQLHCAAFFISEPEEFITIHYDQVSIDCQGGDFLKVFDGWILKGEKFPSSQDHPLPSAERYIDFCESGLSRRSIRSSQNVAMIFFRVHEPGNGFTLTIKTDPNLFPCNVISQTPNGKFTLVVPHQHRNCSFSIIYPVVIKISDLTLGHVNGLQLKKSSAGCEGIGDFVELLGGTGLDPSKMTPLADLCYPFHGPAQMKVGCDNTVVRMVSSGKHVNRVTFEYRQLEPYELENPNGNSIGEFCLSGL
Nature of the assay: activators of CRF receptor 2 with binding protein – uHTS hits, confirmation (AID 602473). The assay is classed as functional. The settings on record: read-out: EC50_Mean.

In assay [15] the target is T5, Corticotropin-releasing factor receptor 2/Corticotropin-releasing factor-binding protein. As to the kind of experiment: Dose Response confirmation of uHTS hits for small molecule antagonists of the CRF-binding protein and CRF-R2 receptor complex. Format: functional. To be noted: read-out: IC50_Mean.
For assay [16], the system named is Vero. As to the kind of experiment: cells. Format: functional. To be noted: Chlorocebus sabaeus.
Assay [17] in a line: inhibitors of clade B AD8 Env fusion, dose response, cell-based, cherry-pick (AID 652062).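 Also: luciferase signal from cell-cell fusion driven by HIV-1 clade B AD8 Env; potency is for inhibitors of fusion seen as a drop in luminescence.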 The assay is classed as functional.
A short description of assay [18]: inhibitors of HIV Env-driven cell fusion, dose response, cherry-pick (AID 652057). The assay is classed as functional, cell-based.
Assay [19] in a line: cytotoxicity in OVCAR8 ovarian cancer cells, dose response, PAX8 project, cell-based, plate reader, dry powder samples (AID 743197). Format: functional. The settings on record: OVCAR-8.
The nature of assay [20]: NIH:OVCAR-3 ovarian cancer cell cytotoxicity, dose response, PAX8 inhibitor project, plate reader, dry powder samples (AID 743044). The assay is classed as functional, cell-based.

Paired box protein Pax-8, sequence (Q06710 whole entry): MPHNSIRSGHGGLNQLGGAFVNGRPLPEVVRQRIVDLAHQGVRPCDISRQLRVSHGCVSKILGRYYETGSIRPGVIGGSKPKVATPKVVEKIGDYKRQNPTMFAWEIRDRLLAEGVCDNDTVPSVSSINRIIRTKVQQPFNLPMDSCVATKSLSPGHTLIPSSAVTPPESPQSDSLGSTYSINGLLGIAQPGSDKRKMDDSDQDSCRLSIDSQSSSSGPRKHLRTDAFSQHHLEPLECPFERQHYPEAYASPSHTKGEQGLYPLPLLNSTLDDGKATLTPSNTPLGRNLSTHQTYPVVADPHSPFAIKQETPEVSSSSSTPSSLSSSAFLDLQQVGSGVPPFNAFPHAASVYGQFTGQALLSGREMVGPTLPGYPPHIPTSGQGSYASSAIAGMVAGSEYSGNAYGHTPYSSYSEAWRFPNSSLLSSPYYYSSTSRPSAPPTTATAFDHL

As a reminder, the AC50 is the midpoint of the concentration-response curve, whichever way the signal moves. Turning to `CN1CCN(C2Cc3ccc(Cl)cc3Sc3ccc(F)cc32)CC1` (configuration not stated), the EC50 in assay [1] was 11.9 µM (active); in assay [3], > 150 µM (not active); in assay [4], 4.95 µM (active). In assay [2], the AC50 was 14.1 µM (active).
Regarding `Fc1ccc(-c2cnc(-c3cccs3)o2)cc1`, the IC50 in assay [5] is 24 µM (active).
Consider `CCOc1ccccc1C1C2=C(O)OCC2=Nc2cc3c(cc21)OCO3` (configuration not stated), for which the EC50 in assay [6] was 1.11 µM (inconclusive); in assay [7], > 38 µM (not active); in assay [8], 0.442 µM (active); in assay [9], 0.468 µM (active). The AC50 in assay [10] was 2.15 µM (active).
On to `O=C(Nc1nnc(-c2ccc(Br)cc2)o1)c1ccco1`, for which the EC50 in assay [1] was 13.7 µM (active); in [3] it was > 150 µM (not active); in assay [4] it was 3.78 µM (active). Also, the IC50 in assay [11] was 3.95 µM (active).
For `COC(=O)CN1C(=S)N(c2ccc(OC)cc2)C(=O)/C1=C/c1ccc(N2CCOCC2)cc1`, the IC50 in assay [5] is > 100 µM (inactive).
`Cc1cc(N2CCN(C)CC2)nc2ccc(NC(=S)N3CCCCC3)cc12`: the AC50 in assay [2] was 10.9 µM (active).
For `Cc1ccsc1C(=O)OCC(=O)Nc1nnc(-c2ccccc2)o1`, the figures for the EC50 in assay [7] and in assay [12] were 3.98 µM (active) and > 160 µM (inactive), respectively. Besides, the IC50 in assay [11] is 15.1 µM (active).
As for `O=C(OCC(=O)N1CCN(c2ccccc2)CC1)c1ccc(Cl)cc1[N+](=O)[O-]`, the IC50 in assay [11] was > 50 µM (active).
Take `CC[N+](CC)(CC)CCCCOc1ccc2c(c1)C(=O)c1cc(OCCCC[N+](CC)(CC)CC)ccc1-2`: in assay [2], the AC50 was 0.506 µM (active). For the same compound, the IC50 in assay [13] is 221 µM (active).
As to `Fc1cc(Cl)cc2ccc(-c3ccccc3)nc12`, the IC50 in [5] is 45.2 µM (active).
The term CC50 denotes the concentration at which the toxic effect on the cells reaches its halfway point. Consider `Cc1ccc(/C=N/NC(=S)Nc2cccc(S(=O)(=O)N(C)C)c2)o1`, for which the EC50 in [14] is > 53 µM (inactive). Also, in assay [15], the IC50 is > 47.1 µM (inactive). Also, in [16], the CC50 is > 25 µM (active).
Turning to `C[C@H](CO)N1C[C@H](C)[C@H](CN(C)S(=O)(=O)c2cccs2)Oc2ccc(NC(=O)NC3CCCCC3)cc2CC1=O`, the figures for the AC50 in [17] and in assay [18] were 3.49 µM (active) and 1.19 µM (active), respectively.
Take `CC(C)CC#Cc1ccc2c(c1)O[C@@H](CN(C)S(=O)(=O)c1ccc(F)cc1)[C@H](C)CN([C@@H](C)CO)S2(=O)=O`: the AC50 in [19] is 61 µM (active); in assay [17], 44.9 µM (active); in [18] it was 30.8 µM (active); in assay [10] it was 9.45 µM (active).
On to `Cc1ccc(OC(=O)N(C)C[C@@H]2OCc3ccccc3-c3c(n(C)c4ccccc34)C(=O)N([C@@H](C)CO)C[C@H]2C)cc1`, for which the AC50 in [19] was > 70 µM (inactive); in assay [20] it was 39.9 µM (active); in assay [10], 4.78 µM (active).
`Cn1ccs/c1=N\C(=O)c1ccc(OC(F)(F)F)cc1`: the IC50 in assay [5] is 29.8 µM (active).
For `CN/C(=C\[N+](=O)[O-])NCCSCc1ccc(CN(C)C)o1` [RANITIDINE HYDROCHLORIDE], the AC50 in assay [2] is 11.8 µM (active).

The values are drawn from ChEMBL document CHEMBL1201862, “PubChem BioAssay data set” (2004).
